Reference: PubChem BioAssay AID248 (DTP/NCI, 2004)
Where “and” joins values, the source holds several entries; their conditions need not be identical. Equal values may be shown once. Toxic doses and inconclusive results are not listed. Rule as the data show it: active = T/C of 150% or more; inactive = T/C below 125%.

Tested on: L1210 leukemia ip in BDF1 mice, survival T/C
Assay: NCI In Vivo Anticancer Drug Screen. Data for tumor model L1210 Leukemia (intraperitoneal) in B6D2F1 (BDF1) mice
Settings: endpoint: mean survival time, higher = longer survival
Summary of the method: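 Each compound was tested against a transplantable tumor grown in mice. The endpoint was survival, with treated animals benchmarked against vehicle controls as a simple ratio.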

[1] = dose: 100.0 mg/kg/injection, schedule: Q04DX003 (ip), vehicle: Klucel (hydroxypropylcellulose) (HPC)
[2] = dose: 200.0 mg/kg/injection, schedule: Q04DX003 (ip), vehicle: Klucel (hydroxypropylcellulose) (HPC)
[3] = dose: 400.0 mg/kg/injection, schedule: Q04DX003 (ip), vehicle: Klucel (hydroxypropylcellulose) (HPC)
[4] = dose: 100.0 mg/kg/injection, schedule: Q04DX003 (ip), vehicle: saline with Tween-80
[5] = dose: 200.0 mg/kg/injection, schedule: Q04DX003 (ip), vehicle: saline with Tween-80
[6] = dose: 400.0 mg/kg/injection, schedule: Q04DX003 (ip), vehicle: saline with Tween-80
[7] = dose: 100.0 mg/kg/injection, schedule: Q04DX003 (ip), vehicle: saline
[8] = dose: 200.0 mg/kg/injection, schedule: Q04DX003 (ip), vehicle: saline
[9] = dose: 400.0 mg/kg/injection, schedule: Q04DX003 (ip), vehicle: saline

Measured: T/C

Cc1cc(NC(=O)c2ccccc2)c(C)cc1N
inactive: dose: 100.0 mg/kg/injection, schedule: Q01DX001 (ip), vehicle: carboxymethylcellulose (CMC) 92 % of control | dose: 200.0 mg/kg/injection, schedule: Q01DX001 (ip), vehicle: carboxymethylcellulose (CMC) 99 % of control | dose: 400.0 mg/kg/injection, schedule: Q01DX001 (ip), vehicle: carboxymethylcellulose (CMC) 101 % of control

CS(=O)(=O)OCCN(CCOS(C)(=O)=O)c1ccc(C=Nc2ccc3ccccc3c2)c(Cl)c1
inactive: [1] 103 % of control and 107 % of control | [2] 113 % of control | [3] 118 % of control

COC(=O)C1=C(C)NC(=O)NC1c1ccc(OC)cc1 (centres undefined)
inactive: [4] 103 % of control | [5] 90 % of control | [6] 90 % of control

O=C(O)/C=C/c1cnc[nH]1
inactive: dose: 100.0 mg/kg/injection, schedule: Q04DX002 (ip), vehicle: saline 93 % of control | dose: 200.0 mg/kg/injection, schedule: Q04DX002 (ip), vehicle: saline 104 % of control | dose: 400.0 mg/kg/injection, schedule: Q04DX002 (ip), vehicle: saline 108 % of control

OC1COC(O)C(O)C1O (centres undefined)
inactive: dose: 100.0 mg/kg/injection, schedule: Q01DX009 (ip), vehicle: saline 98 % of control | [7] 104 % of control | dose: 200.0 mg/kg/injection, schedule: Q01DX009 (ip), vehicle: saline 103 % of control | [8] 111 % of control | dose: 250.0 mg/kg/injection, schedule: Q04DX003 (ip), vehicle: saline 93 % of control | dose: 400.0 mg/kg/injection, schedule: Q01DX009 (ip), vehicle: saline 104 % of control | [9] 104 % of control | dose: 500.0 mg/kg/injection, schedule: Q04DX003 (ip), vehicle: saline 96 % of control | dose: 1000.0 mg/kg/injection, schedule: Q04DX003 (ip), vehicle: saline 102 % of control | dose: 2000.0 mg/kg/injection, schedule: Q04DX003 (ip), vehicle: saline 91 % of control

Oc1c(Cl)cc(N=Cc2ccc(N(CCCCl)CCCCl)cc2)cc1Cl
inactive: [1] 101 % of control | [2] 101 % of control | [3] 102 % of control

COc1cccc(C=Nc2ccc(N(C)C)cc2)c1O.COc1cccc(C=Nc2ccc(N(C)C)cc2)c1O.[Co]
inactive: dose: 50.0 mg/kg/injection, schedule: Q04DX003 (ip), vehicle: saline with Tween-80 88 % of control | [4] 88 % of control | [5] 98 % of control

Nc1ccc(Nc2nc3ccccc3s2)c(O)c1
inactive: dose: 75.0 mg/kg/injection, schedule: Q01DX001 (ip), vehicle: saline 104 % of control | dose: 150.0 mg/kg/injection, schedule: Q01DX001 (ip), vehicle: saline 101 % of control | dose: 300.0 mg/kg/injection, schedule: Q01DX001 (ip), vehicle: saline 104 % of control

CCCCC1=C(c2ccccc2)C(=O)OC1=O
inactive: dose: 100.0 mg/kg/injection, schedule: Q01DX009 (ip), vehicle: Klucel (hydroxypropylcellulose) (HPC) 95 % of control | [1] 88 % of control | dose: 200.0 mg/kg/injection, schedule: Q01DX009 (ip), vehicle: Klucel (hydroxypropylcellulose) (HPC) 95 % of control | [2] 98 % of control | dose: 400.0 mg/kg/injection, schedule: Q01DX009 (ip), vehicle: Klucel (hydroxypropylcellulose) (HPC) 100 % of control | [3] 89 % of control

O=C(O)CCc1cc([N+](=O)[O-])c(O)c([N+](=O)[O-])c1
inactive: [4] 96 % of control | [5] 101 % of control | [6] 99 % of control

COP(=O)(O)C(C)=O (tested in a mixture with another compound)
inactive: dose: 100.0 mg/kg/injection, schedule: Q04DX002 (ip), vehicle: other 96 % of control | dose: 200.0 mg/kg/injection, schedule: Q04DX002 (ip), vehicle: other 114 % of control | dose: 400.0 mg/kg/injection, schedule: Q04DX002 (ip), vehicle: other 101 % of control

COc1ccc(C=Nc2ccccc2)cc1
inactive: [4] 103 % of control | [5] 97 % of control | [6] 97 % of control

Cc1cc2c(c3[nH]c4ccccc4c13)C(=O)c1ccccc1C2=O
inactive: dose: 100.0 mg/kg/injection, schedule: Q01DX001 (ip), vehicle: saline 102 % of control | dose: 200.0 mg/kg/injection, schedule: Q01DX001 (ip), vehicle: saline 95 % of control | dose: 400.0 mg/kg/injection, schedule: Q01DX001 (ip), vehicle: saline 102 % of control

CCOc1cc2ccc3c4cc(OC)c(OC)cc4c[n+](C)c3c2cc1OCC
inactive: dose: 100.0 mg/kg/injection, schedule: Q04DX002 (ip), vehicle: saline with Tween-80 98 % of control

NC(=S)N/N=C\c1c[nH]c2nccnc12
inactive: dose: 25.0 mg/kg/injection, schedule: Q01DX009 (ip), vehicle: water 108 % of control | dose: 50.0 mg/kg/injection, schedule: Q01DX009 (ip), vehicle: water 97 % of control | dose: 100.0 mg/kg/injection, schedule: Q01DX009 (ip), vehicle: water 102 % of control | dose: 200.0 mg/kg/injection, schedule: Q01DX009 (ip), vehicle: water 90 % of control | dose: 400.0 mg/kg/injection, schedule: Q01DX009 (ip), vehicle: water 88 % of control

NP(N)(=O)c1ccccc1
inactive: [4] 107 % of control | [5] 118 % of control | [6] 105 % of control

O=C(NC(CCl)c1ccccc1)c1ccc([N+](=O)[O-])cc1 (centres undefined)
inactive: dose: 75.0 mg/kg/injection, schedule: Q04DX003 (ip), vehicle: Klucel (hydroxypropylcellulose) (HPC) 100 % of control | dose: 100.0 mg/kg/injection, schedule: Q01DX001 (ip), vehicle: Klucel (hydroxypropylcellulose) (HPC) 98 % of control | dose: 150.0 mg/kg/injection, schedule: Q04DX003 (ip), vehicle: Klucel (hydroxypropylcellulose) (HPC) 103 % of control | dose: 200.0 mg/kg/injection, schedule: Q01DX001 (ip), vehicle: Klucel (hydroxypropylcellulose) (HPC) 104 % of control | dose: 300.0 mg/kg/injection, schedule: Q04DX003 (ip), vehicle: Klucel (hydroxypropylcellulose) (HPC) 97 % of control | dose: 400.0 mg/kg/injection, schedule: Q01DX001 (ip), vehicle: Klucel (hydroxypropylcellulose) (HPC) 104 % of control

COC(=O)c1c(O)cc(OC)cc1OC
inactive: dose: 100.0 mg/kg/injection, schedule: Q01DX009 (ip), vehicle: other 108 % of control | [7] 95 % of control | dose: 200.0 mg/kg/injection, schedule: Q01DX009 (ip), vehicle: other 108 % of control | [8] 97 % of control | dose: 400.0 mg/kg/injection, schedule: Q01DX009 (ip), vehicle: other 108 % of control | [9] 111 % of control

O=[N+]([O-])c1ccc(/C=N\Nc2ccc([N+](=O)[O-])cn2)cc1
inactive: dose: 50.0 mg/kg/injection, schedule: Q01DX009 (ip), vehicle: saline with Tween-80 91 % of control | dose: 100.0 mg/kg/injection, schedule: Q01DX009 (ip), vehicle: saline sonified 92 % of control | dose: 100.0 mg/kg/injection, schedule: Q01DX009 (ip), vehicle: saline with Tween-80 95 % of control | [1] 94 % of control | dose: 200.0 mg/kg/injection, schedule: Q01DX009 (ip), vehicle: saline sonified 87 % of control | dose: 200.0 mg/kg/injection, schedule: Q01DX009 (ip), vehicle: saline with Tween-80 87 % of control | [2] 93 % of control | dose: 400.0 mg/kg/injection, schedule: Q01DX009 (ip), vehicle: saline sonified 95 % of control | [3] 101 % of control
